Test results: patent US9463189B2 (BPV Holdings, LLC, priority 2007, dated 2016)
Where a name gives a salt, the structure may show the parent alone.

Assays:
[1] = test system: NASH mice; assay: Hepatic steatosis / lipid accumulation in liver, Oil Red O stain image analysis; type: in vivo, C57B1/6J mice
Source text: (§1) Early Steatosis Model: C57B1/6J mice (22-39 days old) mice were used for the study. Mice were fed normal chow food (Lab Diet, 5P14Prolab Animal Diet, PMI Nutritional International, Brentwood, Mo., Cat# RMH 2500) or 58% high fat diet (HFD, 58 kcal % fat and corn starch with purple dye, Research Diets, New Brunswick, N.J., Cat# D12330 equivalent to Western diet) for 120-150 days. […] This group is referred to as the HFD-low body group in FIG. 1A (insulin & liver fat accumulation˜normal). On the other hand, one fifth of the mice gained 60-70% higher body weight (compared to normal chow fed mice) while on the same HFD diet (NASH group, very high insulin and liver fat) further shown in FIG. 1A. The majority of the mice (three fifths) gained body weight as expected on the HFD (30-40% higher than the normal chow fed mice) and is referred to as the DIO group (normal to moderately high insulin and liver fat accumulation) as shown in FIG. 1A. Control animals (n=5) representative of the HFD-low body weight and the NASH groups were sacrificed prior to starting the rest of the animals on treatment with the Compound 2 (5 or 10 mg/Kg/day). Liver, white adipose and muscle from the sacrificed mice were collected for histology performed on the liver tissue.
The development of NASH was further confirmed using histological analyses of liver. The sections were analyzed for 1) hepatic steatosis 2) necroinflammation, and 3) fibrosis. Histological analyses of hepatic steatosis was assessed by quantitative image analysis of Oil Red O stain in liver sections and defined as the percentage of Oil Red ‘O’ positive area relative to the total image area.
Following 120-150 days on the HFD, mice in the NASH group were treated with Compound 2 (5 or 10 mg/Kg/day) or vehicle (10% Encapsin) for 42 days. Fasting and post prandial (PP) blood draws were taken at the beginning of the study (compound treatment) to identify and confirm the NASH group and during the study to evaluate various pharmacological responses. Since the NASH mice are severely hyperinsulinemic compared to NC mice, glucose tolerance testing (GTT, measures peripheral insulin resistance) was performed to evaluate the effect of Compound 2 on improvement of peripheral insulin sensitivity. Treatment was administered for 42 days (separate experiments). Body weight and food intake was measured throughout the study.
Staining was prepared with Oil Red ‘O’ that stains fat deposits red on frozen tissues where positive staining indicates lipid accumulation. Trichrome staining was used to illuminate fibrosis; collagen deposits appear blue and positive staining indicates fibrosis.

[2] = test system: TGFβ-1; assay: TGFβ-1 levels in liver lysates of NASH mice; type: in vivo, C57B1/6J mice
Source text: as §1, with “Liver, white adipose and muscle from the sacrificed mice were collected for histology performed on the liver tissue.” left out
Following 120-150 days on the HFD, mice in the NASH group were treated with Compound 2 (5 or 10 mg/Kg/day) or vehicle (10% Encapsin) for 42 days. […] Body weight and food intake was measured throughout the study.

[3] = test system: NASH mice; assay: Macrophage infiltration in liver, F4/80 staining; type: in vivo, C57B1/6J mice
Description: NASH-induced inflammation and lipid accumulation in the liver promotes infiltration of monocytes from peripheral circulation into the liver. Hepatic inflammatory status of NASH mice was assessed by histological assessment of the presence of macrophage specific markers including F4/80 in liver sections. An F4/80 antibody stain used is to quantitatively differentiate monocyte/macrophage cell population in the blood and tissue: infiltrating monocytes are F4/80 bright whereas liver macrophages (Kupffer cells) are F4/80 dull. There was a striking increase in the number of F4/80 bright macrophages in the liver of the NASH mice (data not shown) that is attenuated by treatment with Compound 2 (42 days, 5 mg/Kg/day) treated NASH (FIG. 4).
F4/80 stain was used to illustrate macrophage infiltration in liver tissue. The following protocol was followed: • 1. Check the number of sections per slide; if there is 1 section then use 2 slides from the same group per staining run (1 for ctrl IgG and 1 for primary antibody of interest). If there are 2 sections per slide then use 1 slide per group per run and separate the sections using a PAP pen. • 2. De-paraffin slides through 3×5-minutes Propar clearant, and re-hydrate with 5-minutes each in decreased concentrations of reagent alcohol to water (100%, 95%, 75%, water). • 3. Use Citrate buffer pH 6.0 for HIER (heat-induced epitope retrieval). […]

[4] = test system: PPAR; details: shown in US2006/0167012A1 and US2006/0205736A1; cited from earlier work

In the case of `C[C@@H]1CN(Cc2ccc(OC(F)(F)F)cc2)C[C@H](C)N1S(=O)(=O)c1cccc2c1C[C@@H](C(=O)O)C2` [Compound 2, (S)-4-[cis-2,6-Dimethyl-4-(4-trifluoromethoxy-benzyl)-piperazine-1-sulfonyl]-indan-2-carboxylic acid tosylate], the “fat accumulation in the livers of treated vs. non-treated NASH mice” value ([1]; 42 days of 10 mg/kg/day) is reported as “reduced fat accumulation”, the “Percent Field Area, Lipid (stained oil deposits)” value ([1]; HFD + Compound 2, 10 mg/kg, 42 days, liver sections, HFD + Vehicle 47.7% +/− 5.5) is reported as 16.0% +/− 7.6 and the “Percent Field Area, Cytoplasm” value ([1]; HFD + Compound 2, 10 mg/kg, 42 days, liver sections, HFD + Vehicle 91% +/− 2.4) is reported as 38.6% +/− 2.3. For the same molecule, the “reduced lipid accumulation in the liver” value ([1]; oral administration, NASH mice, p<0.03 vs. vehicle) was 32%, the “decrement of TGFβ levels in the liver lysates” value ([2]; 10 mg/Kg/day, p<0.01, FIG. 3A) was 49% and the “levels of inflammatory marker TGFβ-1” value ([2]; oral administration, NASH mice, p<0.05 vs. vehicle) was “normalized levels”. The “number of F4/80 bright macrophages in the liver of the NASH mice” value ([3]; 42 days, 5 mg/Kg/day, FIG. 4) was “attenuated”, the “macrophage infiltration in the liver” value ([3]; oral administration, NASH mice, summary) was “attenuated macrophage infiltration” and the PPAR modulator activity [4] was “PPAR modulators”.
